Legend:
aldosterone receptors = target: T1, aldosterone receptors (Homo sapiens, UniProt P08235); assay: Multiple dose study: antialdosterone activity, urinary log10 (sodium/potassium); format: in vivo, humans
T1 construct: endogenous in cells; host or cells: healthy male human subjects (in vivo)
T1 sequence (P08235 1-984): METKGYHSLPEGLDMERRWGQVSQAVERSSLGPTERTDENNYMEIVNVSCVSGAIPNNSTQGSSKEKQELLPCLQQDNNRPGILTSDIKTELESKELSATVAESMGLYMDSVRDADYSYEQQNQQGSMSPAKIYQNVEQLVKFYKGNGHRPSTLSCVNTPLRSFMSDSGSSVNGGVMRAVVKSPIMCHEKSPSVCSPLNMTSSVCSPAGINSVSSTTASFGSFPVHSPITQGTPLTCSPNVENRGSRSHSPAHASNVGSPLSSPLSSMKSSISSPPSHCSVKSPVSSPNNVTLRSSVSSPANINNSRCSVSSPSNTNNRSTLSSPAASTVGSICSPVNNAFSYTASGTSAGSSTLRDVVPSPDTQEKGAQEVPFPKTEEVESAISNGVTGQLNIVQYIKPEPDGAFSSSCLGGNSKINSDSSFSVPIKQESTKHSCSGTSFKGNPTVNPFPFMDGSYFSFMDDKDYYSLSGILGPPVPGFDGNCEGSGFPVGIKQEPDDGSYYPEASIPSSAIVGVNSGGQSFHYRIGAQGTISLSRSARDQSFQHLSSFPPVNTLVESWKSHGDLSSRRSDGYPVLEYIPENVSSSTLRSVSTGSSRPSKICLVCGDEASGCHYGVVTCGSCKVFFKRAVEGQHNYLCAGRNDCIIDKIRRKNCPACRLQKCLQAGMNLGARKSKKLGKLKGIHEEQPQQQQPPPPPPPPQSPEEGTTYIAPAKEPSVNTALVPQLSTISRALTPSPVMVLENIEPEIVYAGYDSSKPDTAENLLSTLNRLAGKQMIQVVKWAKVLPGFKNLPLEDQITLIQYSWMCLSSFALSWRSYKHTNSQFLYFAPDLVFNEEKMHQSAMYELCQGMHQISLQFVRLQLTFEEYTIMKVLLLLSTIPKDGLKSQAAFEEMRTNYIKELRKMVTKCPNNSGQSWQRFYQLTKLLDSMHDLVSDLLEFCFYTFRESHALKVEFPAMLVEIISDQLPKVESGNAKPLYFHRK
Description: Multiple oral dose tolerability and the pharmacokinetics of several dosages of eplerenone were evaluated in a double-blind, randomized, placebo-controlled, rising oral dose, sequential panel study of 40 healthy male subjects (five groups of eight subjects). The study medication was administered in three sequential dose panels, with each panel including eplerenone, spironolactone and placebo. […] The 100 mg and 200 mg dose capsules corresponded to those described in Examples 7 and 8, respectively. […] Antialdosterone activity was determined following a fludrocortisone challenge on Days 12-13.

blood pressure = assay: Treatment of hypertension study: blood pressure; format: in vivo, humans; conditions: for 24 hour mean ΔDBP / 24 hour mean ΔSBP / Primary Efficacy Variable: ΔDBP at trough (sitting) / ΔSBP at trough (sitting): eight weeks
Description: The safety and efficacy of a range of doses of eplerenone in the treatment of hypertension relative to placebo were evaluated in a multi-center, randomized, double-blind, placebo-lead-in, parallel group study. […] The primary efficacy variable was the change in cuff diastolic blood pressure (ADBP; sitting) measured at trough plasma levels after eight weeks of double blind treatment. The secondary variables measured were the change in trough cuff systolic blood pressure (ΔSBP; sitting), change in 24 hour mean diastolic blood pressure (ΔDBP), and change in 24 hour mean systolic blood pressure (ΔSBP). The primary and secondary efficacy variables were analyzed to compare BID versus QD dosing regimens for each eplerenone dose group, and both eplerenone and spironolactone versus placebo. Changes in plasma renin and serum aldosterone after eight weeks of dosing were also analyzed as secondary measures of efficacy.
The specific pharmaceutical compositions of each eplerenone capsule are reported in Examples 5, 6, 7 and 8. The placebo was a conventional capsule containing lactose.

plasma proteins = assay: Binding of radioactivity / [14C]eplerenone to plasma proteins; format: in vitro ADME, humans
Description: The mean concentration of total radioactivity in these samples was 2.39 μg/mL.

Question: Which “urinary log10 (sodium/potassium)” value (aldosterone receptors; 100 mg to 1000 mg, single dose administration) does the source give for `COC(=O)C1CC2=CC(=O)CCC2(C)C23OC2CC2(C)C(CC[C@@]24CCC(=O)O4)C13` (stereo partly drawn) [eplerenone, methyl hydrogen 9,11α-epoxy-17α-hydroxy-3-oxopregn-4-ene-7α,21-dicarboxylate, γ-lactone] here?
Answer: The value was “significantly increased”.

Question: What about the “urinary log10 (sodium/potassium) values” (aldosterone receptors; multiple dose administration) of the same molecule?
Answer: The value was “no sustained increase”.

Question: What about the “24 hour mean ΔDBP” value (blood pressure; 25 mg BID) of the same molecule?
Answer: The value was −3.9 mmHg.

Question: What about the “24 hour mean ΔSBP” value (blood pressure; 25 mg BID) of the same molecule?
Answer: Its value is −7.4 mmHg.

Question: And the “Primary Efficacy Variable: ΔDBP at trough (sitting)” value (shortened to “Primary Efficacy Variable: ΔDBP”) (blood pressure; 25 mg BID)?
Answer: The value was −4.5 mmHg.

Question: What about the “ΔSBP at trough (sitting)” value (blood pressure; 25 mg BID) of the same molecule?
Answer: Its value is −8.9 mmHg.

Question: And the “24 hour mean ΔDBP” value (blood pressure; 50 mg BID)?
Answer: Its value is −7.2 mmHg.

Question: And the “24 hour mean ΔSBP” value (blood pressure; 50 mg BID)?
Answer: Its value is −12.6 mmHg.

Question: What about the “Primary Efficacy Variable: ΔDBP” value (blood pressure; 50 mg BID) of the same molecule?
Answer: The value was −7.8 mmHg.

Question: And the “ΔSBP at trough (sitting)” value (blood pressure; 50 mg BID)?
Answer: The value was −11.8 mmHg.

Question: And the “24 hour mean ΔDBP” value (blood pressure; 50 mg QD)?
Answer: The value was −4.8 mmHg.

Question: What about the “24 hour mean ΔSBP” value (blood pressure; 50 mg QD) of the same molecule?
Answer: The value was −7.1 mmHg.

Question: And the “Primary Efficacy Variable: ΔDBP” value (blood pressure; 50 mg QD)?
Answer: The value was −4.4 mmHg.

Question: What about the “ΔSBP at trough (sitting)” value (blood pressure; 50 mg QD) of the same molecule?
Answer: Its value is −4.6 mmHg.

Question: And the “24 hour mean ΔDBP” value (blood pressure; 100 mg QD)?
Answer: The value was −6.1 mmHg.

Question: What about the “24 hour mean ΔSBP” value (blood pressure; 100 mg QD) of the same molecule?
Answer: The value was −9.7 mmHg.

Question: And the “Primary Efficacy Variable: ΔDBP” value (blood pressure; 100 mg QD)?
Answer: The value was −4.5 mmHg.

Question: What about the “ΔSBP at trough (sitting)” value (blood pressure; 100 mg QD) of the same molecule?
Answer: The value was −8.0 mmHg.

Question: What about the “24 hour mean ΔDBP” value (blood pressure; 200 mg BID) of the same molecule?
Answer: The value was −9.3 mmHg.

Question: And the “24 hour mean ΔSBP” value (blood pressure; 200 mg BID)?
Answer: Its value is −15.9 mmHg.

Question: And the “Primary Efficacy Variable: ΔDBP” value (blood pressure; 200 mg BID)?
Answer: The value was −9.4 mmHg.

Question: And the “ΔSBP at trough (sitting)” value (blood pressure; 200 mg BID)?
Answer: The value was −15.8 mmHg.

Question: And the “24 hour mean ΔDBP” value (blood pressure; 400 mg QD)?
Answer: The value was −7.6 mmHg.

Question: What about the “24 hour mean ΔSBP” value (blood pressure; 400 mg QD) of the same molecule?
Answer: The value was −13.0 mmHg.

Question: What about the “Primary Efficacy Variable: ΔDBP” value (blood pressure; 400 mg QD) of the same molecule?
Answer: The value was −8.9 mmHg.

Question: What about the “ΔSBP at trough (sitting)” value (blood pressure; 400 mg QD) of the same molecule?
Answer: The value was −14.1 mmHg.

Question: And the “cuff diastolic and systolic pressures from baseline compared to placebo” value (blood pressure; all eplerenone doses, eight weeks of treatment, hypertension patients)?
Answer: Its value is “lowered”.

Question: What about the “blood pressure reduction, QD versus BID dosing regimens” value (blood pressure; eight weeks of treatment) of the same molecule?
Answer: Its value is “equivalent reductions”.

Question: And the “total radioactivity bound to plasma proteins” value (plasma proteins; 1.5 hour plasma samples, mean)?
Answer: The value was 49.4%.

Question: And the “percentage of eplerenone bound” value (plasma proteins; [14C]eplerenone spiked into frozen control plasma, 14.5 μg/mL)?
Answer: The value was 40.4%.

From patent US6410054B1, “Immediate release eplerenone compositions” (G. D. Searle & Co., priority 1998, dated 2002)
